Measurements reported in PMC5986797, “Laminin heparin-binding peptides bind to several growth factors and enhance diabetic wound healing” (Nature Communications, 2018).

Legend:
[1] = test system: recombinant human laminin isoforms (–111, –211, –332, –411, –421, –511, and –521); assay: ELISA: binding of full-length laminin isoforms to absorbed GFs and CXCL chemokines; conditions: 50 nM GF coated, 10 nM laminin, n = 4; for binding to all tested laminin isoforms (ELISA, A450 nm): signals greater than 0.1 indicate binding; for binding to the other laminin isoforms (ELISA, A450 nm): isoforms other than laminin-332
Method: Ninety-six-well ELISA plates (med-binding, Greiner Bio-One) were coated with 50 nM GFs in 100 µL/well of phosphate-buffered saline (PBS) at 37 °C for more than 2 h. After blocking with 2% BSA solution containing PBS and 0.05% Tween 20 (PBS-T), 10 nM recombinant human laminin isoforms (–111, –211, –332, –411, –421, –511, and –521) (>95% purity tested by SDS-PAGE, BioLamina) in 100 µL/well PBS were added. Bound laminin was detected with 100 µL/well rabbit anti-human LAMC1 polyclonal antibody (Assay Biotech, Catalog No. C13072, 1:1000 dilution in PBS) or rabbit anti-human LAMA3 polyclonal antibody (Assay Biotech, Catalog No. C13066, 1:1000 dilution in PBS). After incubation with biotinylated anti-rabbit antibody for 60 min at room temperature (RT), HRP-conjugated streptavidin (Jackson ImmunoResearch) was added. After 60 min of incubation at RT, 50 μL of TMB substrate (Sigma-Aldrich) was added. The reactions were stopped by adding 25 μL of 2 N H2SO4. Subsequently, the absorbance at 450 nm was measured with a reference of 570 nm.

[2] = test system: recombinant human syndecan-1, syndecan-2, syndecan-3, and syndecan-4; assay: ELISA: syndecan binding to laminin peptides; design: key to Interaction with Syndecan: ++ indicates high affinities; + indicates medium/low affinities; conditions: for binding to syndecans 1–4 (ELISA): 10 µg/mL laminin peptide coated (legend; method 1 μg/mL), 1 μg/mL histidine-tagged syndecan, vs BSA-coated wells, n = 8; for Interaction with Syndecan: summary table
Method: ELISA tests were performed as described above. […] A concentration of 1 μg/mL of BSA served as non-binding protein control. After blocking with 2% BSA PBS-T solution, 1 μg/mL of the recombinant human syndecan-1, syndecan-2, syndecan-3, and syndecan-4 (all syndecan proteins are histidine-tagged; SinoBiological) were added. Bound GF was detected with anti-histidine tag antibody (BioLegend, Catalog No. 562504, 1:1000 dilution).

human lung fibroblasts = assay: Cell adhesion assay, fibroblasts; type: cell-based; design: key to Cell adhesion Fibroblast: ++ indicates high affinities; + indicates medium/low affinities; conditions: for Cell adhesion Fibroblast: summary table; for fibroblast attachment on peptide-coated surfaces: without EDTA, 1 μg/mL peptide coated, 3000 cells/well, 30 min, 37 °C, FGM-2, 1% FBS, CyQUANT, vs BSA, n = 10
Method: (§1) A total of 96-well plates (non-tissue culture treated, Greiner Bio-One) were pre-coated with 1 μg/mL with laminin HBD peptides in PBS for 2 h at 37 °C, followed by blocking with 2% BSA PBS for 1 h at RT. Cell adhesion assays were performed using human lung fibroblasts (Lonza) in FGM-2 medium (Lonza) or human umbilical vein endothelial cells (HUVEC; Lonza) in EGM-2 medium (Lonza) supplemented with 1% fetal bovine serum (FBS) and 100 µg/mL VEGF-A165, with or without 5 mM EDTA (Sigma-Aldrich). Cells were plated at 3000 cells/well on laminin peptide pre-coated plates and incubated for 30 min at 37 °C, 5% CO2. Then, the medium was removed, and wells were quickly washed three times with PBS. Cell numbers were quantified using a CyQUANT assay, according to the manufacturer’s instructions (Invitrogen). All cell lines were checked for mycoplasma contamination and used in passages from 5 to 8.

VEGF-A165 = assay: ELISA: VEGF-A165 binding to laminin LG domain / laminin peptide; design: species or system human; conditions: 10 µg/mL laminin peptide coated (legend; method 1 μg/mL); 1 μg/mL GF; vs BSA-coated wells; n = 4
Method: (§2) ELISA tests were performed as described above. In brief, […] recombinant protein, laminin alpha 4 LG domain recombinant protein (R&D Systems), laminin alpha 5 LG domain recombinant protein (LD BioPharma), or laminin peptide (sequences are described in Supplementary Table 1, chemically synthesized by Genscript) in PBS for 2 h at 37 °C. A concentration of 1 μg/mL of BSA served as non-binding protein control. After blocking with 2% BSA PBS-0.05% Tween 20 (PBS-T) solution, 1 μg/mL of the recombinant human proteins (VEGF-A121, VEGF-A165, PlGF-1, PlGF-2, PDGF-BB, or FGF-2) or 10 μg/mL of biotinylated heparin (Sigma-Aldrich) were added. Bound GF was detected with biotinylated antibodies for human VEGF-A, PlGF, PDGF-BB (R&D Systems, Catalog No. DY220, 1:180 dilution), or FGF-2 (R&D Systems). The antibodies were detected by streptavidin-HRP (R&D Systems).

GF = assay: ELISA: GF binding to laminin peptides, stated for the tested GFs together; design: species or system human; key: ++ indicates high affinities; + indicates medium/low affinities; conditions: summary table
Method: (§3) ELISA tests were performed as described above. In brief, ELISA plates were coated with 1 μg/mL of laminin alpha 3 LG domain recombinant protein, laminin alpha 4 LG domain recombinant protein (R&D Systems), laminin alpha 5 LG domain recombinant protein (LD BioPharma), or laminin peptide (sequences are described in Supplementary Table 1, chemically synthesized by Genscript) in PBS for 2 h at 37 °C. A concentration of 1 μg/mL of BSA served as non-binding protein control. After blocking with 2% BSA PBS-0.05% Tween 20 (PBS-T) solution, 1 μg/mL of the recombinant human proteins (VEGF-A121, VEGF-A165, PlGF-1, PlGF-2, PDGF-BB, or FGF-2) or 10 μg/mL of biotinylated heparin (Sigma-Aldrich) were added. Bound GF was detected with biotinylated antibodies for human VEGF-A, PlGF, PDGF-BB (R&D Systems, Catalog No. DY220, 1:180 dilution), or FGF-2 (R&D Systems). The antibodies were detected by streptavidin-HRP (R&D Systems).

[3] = ELISA: biotinylated heparin binding to laminin peptides; design: key to Interaction with Heparin: ++ indicates high affinities; + indicates medium/low affinities; conditions: for binding to heparin (ELISA): 10 µg/mL laminin peptide coated (legend; method 1 μg/mL), 10 µg/mL biotinylated heparin, vs BSA-coated wells, n = 4; for Interaction with Heparin: summary table
Method: as §2

PDGF-BB = assay: ELISA: PDGF-BB binding to laminin LG domain / laminin peptide; design: species or system human; conditions: 10 µg/mL laminin peptide coated (legend; method 1 μg/mL); 1 μg/mL GF; vs BSA-coated wells; n = 4
Method: as §3

[4] = test system: human umbilical vein endothelial cells (HUVEC); assay: Cell adhesion assay, HUVEC; type: cell-based; design: key to Cell adhesion HUVEC: ++ indicates high affinities; + indicates medium/low affinities; conditions: for Cell adhesion HUVEC: summary table; for HUVEC attachment on peptide-coated surfaces: without EDTA, 1 μg/mL peptide coated, 3000 cells/well, 30 min, 37 °C, 100 ng/mL VEGF-A165, 1% FBS, CyQUANT, n = 10
Method: as §1, with “Cell adhesion assays were performed using human lung fibroblasts (Lonza) in FGM-2 medium (Lonza) or human umbilical vein endothelial cells (HUVEC; Lonza) in EGM-2 medium (Lonza) supplemented with 1% fetal bovine serum (FBS) and 100 µg/mL VEGF-A165, with or without 5 mM EDTA (Sigma-Aldrich).” left out

FGF-2 = assay: ELISA: FGF-2 binding to laminin LG domain / laminin peptide; design: species or system human; conditions: 10 µg/mL laminin peptide coated (legend; method 1 μg/mL); 1 μg/mL GF; vs BSA-coated wells; n = 4
Method: as §3

PlGF-2 = assay: ELISA: PlGF-2 binding to laminin LG domain / laminin peptide; design: species or system human; conditions: 10 µg/mL laminin peptide coated (legend; method 1 μg/mL); 1 μg/mL GF; vs BSA-coated wells; n = 4
Method: as §3

PDGF-AA: platelet-derived growth factor, PeproTech
binding to all tested laminin isoforms (ELISA, A450 nm) [1]: bound

IGF-2: insulin-like growth factor, PeproTech
binding to all tested laminin isoforms (ELISA, A450 nm) [1]: Neither IGF-1 nor IGF-2 displayed significant binding

PDGF-BB: platelet-derived growth factor, PeproTech
binding to all tested laminin isoforms (ELISA, A450 nm) [1]: bound

FGF-18: fibroblast growth factor, PeproTech
binding to all tested laminin isoforms (ELISA, A450 nm) [1]: bound

BMP-4: bone morphogenetic protein, PeproTech
binding to all tested laminin isoforms (ELISA, A450 nm) [1]: not

KNSFMALYLSKGR [LAMA3_3031–3043, chemically synthesized human laminin LAMA3 LG4 peptide, 13 aa]
binding to syndecans 1–4 (ELISA) [2]: weak binding
Interaction with Syndecan [2]: +
Cell adhesion Fibroblast (human lung fibroblasts): +
fibroblast attachment on peptide-coated surfaces (human lung fibroblasts): enhancement of fibroblast attachment
binding to VEGF-A165 (ELISA), peptides (VEGF-A165): bound
Interaction with GF (GF): +
binding to heparin (ELISA) [3]: do not show heparin binding

CXCL-11: CXCL chemokine, PeproTech
binding to the other laminin isoforms (ELISA, A450 nm) [1]: not to the other isoforms
binding to laminin-332 (ELISA, A450 nm) [1]: bound weakly

IGF-1: insulin-like growth factor, PeproTech
binding to all tested laminin isoforms (ELISA, A450 nm) [1]: Neither IGF-1 nor IGF-2 displayed significant binding

βNGF: β-nerve growth factor, PeproTech
binding to all tested laminin isoforms (ELISA, A450 nm) [1]: bound only weakly

CXCL-12α: CXCL chemokine, PeproTech
binding to the other laminin isoforms (ELISA, A450 nm) [1]: not to the other isoforms
binding to laminin-332 (ELISA, A450 nm) [1]: bound weakly

TLFLAHGRLVYMFNVGHKKLKIR [LAMA4_1521–1543, chemically synthesized human laminin LAMA4 LG4 peptide, 23 aa]
binding to syndecans 1–4 (ELISA) [2]: significant binding
Interaction with Syndecan [2]: ++
Cell adhesion Fibroblast (human lung fibroblasts): +
fibroblast attachment on peptide-coated surfaces (human lung fibroblasts): enhancement of fibroblast attachment
binding to PDGF-BB (ELISA), peptides (PDGF-BB): not statistically significant
Cell adhesion HUVEC [4]: +
HUVEC attachment on peptide-coated surfaces [4]: promoted HUVEC attachment
Interaction with GF (GF): +
binding to heparin (ELISA) [3]: bound to heparin
Interaction with Heparin [3]: ++

PPFLMLLKGSTRFNKTKTFR [LAMA3_2932–2951, chemically synthesized human laminin LAMA3 LG3–LG4 linker peptide, 20 aa]
binding to syndecans 1–4 (ELISA) [2]: weak binding
Interaction with Syndecan [2]: +
Cell adhesion Fibroblast (human lung fibroblasts): +
fibroblast attachment on peptide-coated surfaces (human lung fibroblasts): enhancement of fibroblast attachment
binding to VEGF-A165 (ELISA), peptides (VEGF-A165): preferentially bound
Cell adhesion HUVEC [4]: +
HUVEC attachment on peptide-coated surfaces [4]: promoted HUVEC attachment
Interaction with GF (GF): +
binding to heparin (ELISA) [3]: bound to heparin
Interaction with Heparin [3]: ++
binding to FGF-2 (ELISA), peptides (FGF-2): preferentially bound

FGF-1: fibroblast growth factor, PeproTech
binding to all tested laminin isoforms (ELISA, A450 nm) [1]: did not

TPGLGPRGLQATARKASRRSRQPARHPACML [LAMA5_3300–3330, chemically synthesized human laminin LAMA5 linker peptide, 31 aa]
binding to PlGF-2 (ELISA), peptides (PlGF-2): preferentially bound
binding to syndecans 1–4 (ELISA) [2]: significant binding
Interaction with Syndecan [2]: ++
binding to VEGF-A165 (ELISA), peptides (VEGF-A165): preferentially bound
Interaction with GF (GF): +
binding to heparin (ELISA) [3]: bound to heparin
Interaction with Heparin [3]: ++

CXCL-12γ: C–X–C motif ligand (CXCL)-12γ, R&D systems
binding to all tested laminin isoforms (ELISA, A450 nm) [1]: bound

PLFLLHKKGKNLSKPKASQNKKGGKSK [LAMA4_1408–1434, chemically synthesized human laminin LAMA4 linker peptide, 27 aa]
binding to PlGF-2 (ELISA), peptides (PlGF-2): bound
binding to syndecans 1–4 (ELISA) [2]: significant binding
Interaction with Syndecan [2]: ++
binding to VEGF-A165 (ELISA), peptides (VEGF-A165): bound
binding to PDGF-BB (ELISA), peptides (PDGF-BB): bound
Interaction with GF (GF): ++
binding to heparin (ELISA) [3]: bound to heparin
Interaction with Heparin [3]: ++
binding to FGF-2 (ELISA), peptides (FGF-2): bound

HB-EGF: heparin-binding epidermal growth factor, PeproTech
binding to all tested laminin isoforms (ELISA, A450 nm) [1]: weakly bound

NT-3: neurotrophin, PeproTech
binding to all tested laminin isoforms (ELISA, A450 nm) [1]: strong binding

FGF-2: fibroblast growth factor, PeproTech
binding to all tested laminin isoforms (ELISA, A450 nm) [1]: bound
